The record followed here is patent US8697873B2, “Amide substituted imidazopyridines, imidazoquinolines, and imidazonaphthyridines” (3M Innovative Properties Company, priority 2004, dated 2014).

Where a name gives a salt, the structure may show the parent alone. Bounds are passed on as bounds.

Compound `CCOCc1nc2c(N)nc3cccnc3c2n1CCCC(=O)N1CCOCC1` [Example 38, 2-(Ethoxymethyl)-1-(4-morpholin-4-yl-4-oxobutyl)-1H-imidazo[4,5-c][1,5]naphthyridin-4-amine] yielded a melting point of 156 to 157 °C.

As for `CCCc1nc2c(N)nc3ccccc3c2n1CCC(=O)NC` [Example 17, 3-(4-Amino-2-propyl-1H-imidazo[4,5-c]quinolin-1-yl)-N-methylpropanamide], the melting point fell in the range of 177 to 178 °C.

On to `CCCNC(=O)CCCCCn1cnc2c(N)nc3ccccc3c21` [Example 10, 6-(4-Amino-1H-imidazo[4,5-c]quinolin-1-yl)-N-propylhexanamide], for which the melting point fell in the range of 128 to 130 °C.

`CCCc1nc2c(N)nc3ccccc3c2n1CC1(C(N)=O)CCC1` [Example 65, 1-[(4-Amino-2-propyl-1H-imidazo[4,5-c]quinolin-1-yl)methyl]cyclobutanecarboxamide]: the melting point is 234 to 237 °C.

`CCCc1nc2c(N)nc3ccccc3c2n1CCCCCC(=O)N1CCOCC1` [Example 6, 1-(6-Morpholin-4-yl-6-oxohexyl)-2-propyl-1H-imidazo[4,5-c]quinolin-4-amine] showed a melting point of 149 to 151 °C.

`CCCc1nc2c(N)nc3c(c2n1CCCC(=O)N1CCOCC1)CCCC3` [Example 29, 1-(4-Morpholin-4-yl-4-oxobutyl)-2-propyl-6,7,8,9-tetrahydro-1H-imidazo[4,5-c]quinolin-4-amine]: the melting point lay within 181 to 183 °C.

`Cc1nc2c(N)nc3ccccc3c2n1CC(C)(C)C(N)=O` [Example 61, 3-(4-Amino-2-methyl-1H-imidazo[4,5-c]quinolin-1-yl)-2,2-dimethylpropanamide] registered a melting point of 284 to 287 °C.

For the compound `CCCNC(=O)CCn1c(CCC)nc2c(N)nc3ccccc3c21` [Example 15, 3-(4-Amino-2-propyl-1H-imidazo[4,5-c]quinolin-1-yl)-N-propylpropanamide], the melting point is 157 to 158 °C.

As to `CCOCc1nc2c(N)nc3ccccc3c2n1CC1(C(N)=O)CCCCC1` [Example 67, 1-{[4-Amino-2-(ethoxymethyl)-1H-imidazo[4,5-c]quinolin-1-yl]methyl}cyclohexanecarboxamide], the melting point lay in the range of 221 to 223 °C.

Consider `CCCc1nc2c(N)nc3ccccc3c2n1CC(N)=O` [Example 59, 2-(4-Amino-2-propyl-1H-imidazo[4,5-c]quinolin-1-yl)acetamide], for which the melting point is > 300 °C.

With `CCOCc1nc2c(N)nc3ccccc3c2n1CC(C)(C)C(N)=O` [Example 28, 3-[4-Amino-2-(ethoxymethyl)-1H-imidazo[4,5-c]quinolin-1-yl]-2,2-dimethylpropanamide], the melting point was 241 to 243 °C.

Turning to `CCCc1nc2c(N)nc3cccnc3c2n1CCCCCC(N)=O` [Example 54, 6-(4-Amino-2-propyl-1H-imidazo[4,5-c][1,5]naphthyridin-1-yl)hexanamide], the melting point lay in the range of 216.5 to 217.5 °C.

Regarding `CC(C)(Cn1c(CO)nc2c(N)nc3ccccc3c21)C(N)=O` [Example 68, 3-[4-Amino-2-(hydroxymethyl)-1H-imidazo[4,5-c]quinolin-1-yl)-2,2-dimethylpropanamide], the melting point is 201 to 203 °C.

As for `CCOCc1nc2c(N)nc3ccccc3c2n1CCC(N)=O` [Example 24, 3-[4-Amino-2-(ethoxymethyl)-1H-imidazo[4,5-c]quinolin-1-yl]propanamide], the melting point is > 250 °C.

Regarding `CCCc1nc2c(N)nc3ccccc3c2n1CC(C)(C)C(=O)N1CCOCC1` [Example 27, 1-(2,2-Dimethyl-3-morpholin-4-yl-3-oxopropyl)-2-propyl-1H-imidazo[4,5-c]quinolin-4-amine], the melting point lay within 212 to 214 °C.

As to `Cc1nc2c(N)nc3ccccc3c2n1CCC(=O)N1CCOCC1` [Example 22, 2-Methyl-1-(3-morpholin-4-yl-3-oxopropyl)-1H-imidazo[4,5-c]quinolin-4-amine], the melting point lay within 166 to 169 °C.

For the compound `COCCc1nc2c(N)nc3ccccc3c2n1CCC(=O)N1CCOCC1` [Example 19, 2-(2-Methoxyethyl)-1-(3-morpholin-4-yl-3-oxopropyl)-1H-imidazo[4,5-c]quinolin-4-amine], the melting point is 125 to 126 °C.

With `CCOCc1nc2c(N)nc3ccccc3c2n1CC1(C(N)=O)CC1` [Example 64, 1-{[4-Amino-2-(ethoxymethyl)-1H-imidazo[4,5-c]quinolin-1-yl]methyl}cyclopropanecarboxamide], the melting point lay within 230.5 to 232.5 °C.

Take `CCOCc1nc2c(N)nc3cccnc3c2n1CCCCCC(N)=O` [Example 58, 6-[4-Amino-2-(ethoxymethyl)-1H-imidazo[4,5-c][1,5]naphthyridin-1-yl]hexanamide]: the melting point was 215 to 217 °C.

`CCCc1nc2c(N)nc3ccccc3c2n1CCC(N)=O` (as salt: hydrochloride) [Example 18, 3-(4-Amino-2-propyl-1H-imidazo[4,5-c]quinolin-1-yl)propanamide hydrochloride] showed a melting point of 242 to 243 °C.

The compound `CCCc1nc2c(N)nc3c(c2n1CCCCC(=O)N1CCOCC1)CCCC3` [Example 50, 1-(5-Morpholin-4-yl-5-oxopentyl)-2-propyl-6,7,8,9-tetrahydro-1H-imidazo[4,5-c]quinolin-4-amine] yielded a melting point of 158 to 160 °C.

Turning to `CCCNC(=O)CCCn1c(CCC)nc2c(N)nc3ccccc3c21` [Example 2, 4-(4-Amino-2-propyl-1H-imidazo[4,5-c]quinolin-1-yl)-N-propylbutanamide], the melting point fell in the range of 161 to 163 °C.

On to `CCCCc1nc2c(N)nc3ccccc3c2n1CCCCC(N)=O` [Example 52, 5-(4-Amino-2-butyl-1H-imidazo[4,5-c]quinolin-1-yl)pentanamide], for which the melting point fell in the range of 219 to 221 °C.

The compound `CCCc1nc2c(N)nc3cccnc3c2n1CCCCCC(=O)N1CCOCC1` [Example 53, 1-(6-Morpholin-4-yl-6-oxohexyl)-2-propyl-1H-imidazo[4,5-c][1,5]naphthyridin-4-amine] came in with a melting point of 148 to 150 °C.

With `Nc1nc2ccccc2c2c1ncn2CCCCCC(=O)N1CCOCC1` [Example 11, 1-(6-Morpholin-4-yl-6-oxohexyl)-1H-imidazo[4,5-c]quinolin-4-amine], the melting point lay within 166 to 168 °C.

Turning to `CCc1nc2c(N)nc3cccnc3c2n1CCCCCC(N)=O` [Example 56, 6-(4-Amino-2-ethyl-1H-imidazo[4,5-c][1,5]naphthyridin-1-yl)hexanamide], the melting point lay within 220 to 221 °C.

In turn, `CCOCc1nc2c(N)nc(C)c(C)c2n1CCCC(N)=O` [Example 44, 4-[4-Amino-2-(ethoxymethyl)-6,7-dimethyl-1H-imidazo[4,5-c]pyridin-1-yl]butanamide] had a melting point of 199 to 200 °C.

The compound `Cc1nc2c(N)nc3ccccc3c2n1CCC(N)=O` [Example 31, 3-(4-Amino-2-methyl-1H-imidazo[4,5-c]quinolin-1-yl)propanamide] registered a melting point of 237 to 239 °C.

With `CNC(=O)CCn1cnc2c(N)nc3ccccc3c21` [Example 20, 3-(4-Amino-1H-imidazo[4,5-c]quinolin-1-yl)-N-methylpropanamide], the melting point is > 260 °C.

For `CCCc1nc2c(N)nc3ccccc3c2n1CCCC(=O)N1CCOCC1` [Example 1, 1-(4-Morpholin-4-yl-4-oxobutyl)-2-propyl-1H-imidazo[4,5-c]quinolin-4-amine], the melting point lay in the range of 200 to 202 °C.

`CCOCc1nc2c(N)nc3ccccc3c2n1CCCC(N)=O` [Example 33, 4-[4-Amino-2-(ethoxymethyl)-1H-imidazo[4,5-c]quinolin-1-yl]butanamide] yielded a melting point of 233 to 235 °C.

For `CC(C)(Cn1cnc2c(N)nc3ccccc3c21)C(N)=O` (as salt: salt) [Example 62, 3-(4-Amino-1H-imidazo[4,5-c]quinolin-1-yl)-2,2-dimethylpropanamide], the melting point is 287 to 289 °C.

For `CCCNC(=O)CCn1c(C)nc2c(N)nc3ccccc3c21` [Example 32, 3-(4-Amino-2-methyl-1H-imidazo[4,5-c]quinolin-1-yl)-N-propylpropanamide], the melting point was 188 to 189 °C.

Turning to `CCCNC(=O)CCn1cnc2c(N)nc3ccccc3c21` [Example 21, 3-(4-Amino-1H-imidazo[4,5-c]quinolin-1-yl)-N-propylpropanamide], the melting point lay in the range of 212 to 214 °C.

`CCc1nc2c(N)nc3ccccc3c2n1CC1(C(N)=O)CCC1` [Example 66, 1-[(4-Amino-2-ethyl-1H-imidazo[4,5-c]quinolin-1-yl)methyl]cyclobutanecarboxamide]: the melting point fell in the range of 227 to 230 °C.

In the case of `CCCNC(=O)CCCCCn1c(COCC)nc2c(N)nc3ccccc3c21` [Example 14, 6-[4-Amino-2-(ethoxymethyl)-1H-imidazo[4,5-c]quinolin-1-yl]-N-propylhexanamide], the melting point fell in the range of 161 to 162 °C.

`CCc1nc2c(N)nc(C)c(C)c2n1CCCC(N)=O` [Example 42, 4-(4-Amino-2-ethyl-6,7-dimethyl-1H-imidazo[4,5-c]pyridin-1-yl)butanamide] had a melting point of 228 to 230 °C.

As for `CCCc1nc2c(N)nc3ccccc3c2n1CC(C)(C)C(N)=O` [Example 26, 3-(4-Amino-2-propyl-1H-imidazo[4,5-c]quinolin-1-yl)-2,2-dimethylpropanamide], the melting point was in the range of 219 to 221 °C.

On to `CCCc1nc2c(N)nc3ccccc3c2n1CCCCC(N)=O` [Example 35, 5-(4-Amino-2-propyl-1H-imidazo[4,5-c]quinolin-1-yl)pentanamide], for which the melting point was 202 to 203 °C.

Turning to `CCOCc1nc2c(N)nc(C)c(C)c2n1CCCC(=O)N1CCOCC1` [Example 45, 2-(Ethoxymethyl)-6,7-dimethyl-1-(4-morpholin-4-yl-4-oxobutyl)-1H-imidazo[4,5-c]pyridin-4-amine], the melting point is 156 to 158 °C.

As for `CCCCc1nc2c(N)nc3ccccc3c2n1CCCCC(=O)N1CCOCC1` [Example 46, 2-Butyl-1-(5-morpholin-4-yl-5-oxopentyl)-1H-imidazo[4,5-c]quinolin-4-amine], the melting point is 141 to 143 °C.

A word on the melting point: it is the temperature, or range, at which the solid turns liquid.
